Tests used:
[1] = molecular target: Serine/threonine-protein kinase PRP4 homolog (Homo sapiens) (UniProt Q13523); test: Selectivity interaction (ActivX KiNativ screen (kinase selectivity in THP-1 cell lysates)) EUB0000639a PRPF4; type: subcellular; conditions: lysate, at 5 µM
[2] = molecular target: Chromatin remodeling regulator CECR2 (Homo sapiens, UniProt Q9BXF3); test: Selectivity interaction (Bromodomain panel (DSF asssay)) EUB0000270b CECR2
[3] = molecular target: T1, Tyrosine-protein kinase ITK/TSK (Homo sapiens) (UniProt Q08881); test: Selectivity interaction (KinomeScan (DiscoverX)) EUB0000695a ITK; conditions: at 100 nM
T1 sequence (whole entry): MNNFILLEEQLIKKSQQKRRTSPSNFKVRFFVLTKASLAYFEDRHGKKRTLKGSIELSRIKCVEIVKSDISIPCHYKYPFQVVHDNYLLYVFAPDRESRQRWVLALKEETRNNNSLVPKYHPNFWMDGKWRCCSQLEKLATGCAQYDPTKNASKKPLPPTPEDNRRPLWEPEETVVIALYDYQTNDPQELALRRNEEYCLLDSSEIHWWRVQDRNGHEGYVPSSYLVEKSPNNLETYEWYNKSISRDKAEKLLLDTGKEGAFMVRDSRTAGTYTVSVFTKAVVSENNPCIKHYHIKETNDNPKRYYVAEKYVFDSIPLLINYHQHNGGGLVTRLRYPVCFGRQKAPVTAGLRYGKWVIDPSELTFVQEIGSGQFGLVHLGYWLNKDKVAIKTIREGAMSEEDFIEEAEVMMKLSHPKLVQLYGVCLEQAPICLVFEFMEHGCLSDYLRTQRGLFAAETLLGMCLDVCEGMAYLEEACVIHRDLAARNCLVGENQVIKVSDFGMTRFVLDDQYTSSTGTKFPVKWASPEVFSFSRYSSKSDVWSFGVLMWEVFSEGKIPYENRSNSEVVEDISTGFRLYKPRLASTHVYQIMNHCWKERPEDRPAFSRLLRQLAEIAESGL

[4] = molecular target: Rho-associated protein kinase 2 (Homo sapiens, UniProt O75116); test: Selectivity interaction (Upstate Kinase Profiler service (Millipore)) EUB0000056c ROCK2; conditions: at 1 µM
Sequence of Rho-associated protein kinase 2 (O75116 whole entry, looked up): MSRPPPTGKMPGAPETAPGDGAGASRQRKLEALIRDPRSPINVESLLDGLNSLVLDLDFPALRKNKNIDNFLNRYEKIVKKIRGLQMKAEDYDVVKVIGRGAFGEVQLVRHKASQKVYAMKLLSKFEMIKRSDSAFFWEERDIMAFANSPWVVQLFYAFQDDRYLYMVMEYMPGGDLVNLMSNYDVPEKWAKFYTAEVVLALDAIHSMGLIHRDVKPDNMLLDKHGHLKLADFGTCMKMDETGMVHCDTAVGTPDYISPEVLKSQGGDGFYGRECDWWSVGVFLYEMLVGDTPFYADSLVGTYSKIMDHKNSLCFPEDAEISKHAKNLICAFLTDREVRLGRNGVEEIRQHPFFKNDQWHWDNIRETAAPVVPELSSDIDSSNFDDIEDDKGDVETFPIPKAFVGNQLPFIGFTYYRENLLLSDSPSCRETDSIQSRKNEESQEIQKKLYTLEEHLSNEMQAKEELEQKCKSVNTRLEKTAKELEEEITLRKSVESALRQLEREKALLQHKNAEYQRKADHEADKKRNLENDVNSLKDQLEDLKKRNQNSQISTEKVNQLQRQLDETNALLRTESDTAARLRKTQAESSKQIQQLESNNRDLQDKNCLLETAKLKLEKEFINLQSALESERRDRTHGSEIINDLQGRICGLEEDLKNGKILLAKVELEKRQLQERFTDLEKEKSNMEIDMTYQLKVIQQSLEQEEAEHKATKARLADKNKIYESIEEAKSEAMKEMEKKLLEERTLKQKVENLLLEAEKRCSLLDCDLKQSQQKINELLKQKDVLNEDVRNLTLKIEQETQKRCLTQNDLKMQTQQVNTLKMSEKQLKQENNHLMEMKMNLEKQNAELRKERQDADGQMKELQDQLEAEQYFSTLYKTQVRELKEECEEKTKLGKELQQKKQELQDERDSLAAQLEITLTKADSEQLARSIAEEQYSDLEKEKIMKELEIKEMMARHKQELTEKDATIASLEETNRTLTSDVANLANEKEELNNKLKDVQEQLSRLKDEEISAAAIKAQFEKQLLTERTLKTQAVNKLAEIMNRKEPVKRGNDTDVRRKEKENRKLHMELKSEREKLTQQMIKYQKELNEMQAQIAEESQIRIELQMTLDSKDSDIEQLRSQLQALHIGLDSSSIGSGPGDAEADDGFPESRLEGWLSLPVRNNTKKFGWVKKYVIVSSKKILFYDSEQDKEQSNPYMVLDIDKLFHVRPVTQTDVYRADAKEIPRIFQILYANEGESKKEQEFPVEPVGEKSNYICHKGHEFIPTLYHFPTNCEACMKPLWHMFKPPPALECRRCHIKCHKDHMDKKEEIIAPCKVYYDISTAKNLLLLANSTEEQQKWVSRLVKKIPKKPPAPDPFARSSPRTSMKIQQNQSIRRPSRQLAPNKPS

[5] = molecular target: T2, Bone morphogenetic protein receptor type-2 (Homo sapiens) (UniProt Q13873); test: Selectivity interaction (KinomeScan (DiscoverX)) EUB0000655a BMPR2; conditions: at 10 µM
T2 sequence (whole entry): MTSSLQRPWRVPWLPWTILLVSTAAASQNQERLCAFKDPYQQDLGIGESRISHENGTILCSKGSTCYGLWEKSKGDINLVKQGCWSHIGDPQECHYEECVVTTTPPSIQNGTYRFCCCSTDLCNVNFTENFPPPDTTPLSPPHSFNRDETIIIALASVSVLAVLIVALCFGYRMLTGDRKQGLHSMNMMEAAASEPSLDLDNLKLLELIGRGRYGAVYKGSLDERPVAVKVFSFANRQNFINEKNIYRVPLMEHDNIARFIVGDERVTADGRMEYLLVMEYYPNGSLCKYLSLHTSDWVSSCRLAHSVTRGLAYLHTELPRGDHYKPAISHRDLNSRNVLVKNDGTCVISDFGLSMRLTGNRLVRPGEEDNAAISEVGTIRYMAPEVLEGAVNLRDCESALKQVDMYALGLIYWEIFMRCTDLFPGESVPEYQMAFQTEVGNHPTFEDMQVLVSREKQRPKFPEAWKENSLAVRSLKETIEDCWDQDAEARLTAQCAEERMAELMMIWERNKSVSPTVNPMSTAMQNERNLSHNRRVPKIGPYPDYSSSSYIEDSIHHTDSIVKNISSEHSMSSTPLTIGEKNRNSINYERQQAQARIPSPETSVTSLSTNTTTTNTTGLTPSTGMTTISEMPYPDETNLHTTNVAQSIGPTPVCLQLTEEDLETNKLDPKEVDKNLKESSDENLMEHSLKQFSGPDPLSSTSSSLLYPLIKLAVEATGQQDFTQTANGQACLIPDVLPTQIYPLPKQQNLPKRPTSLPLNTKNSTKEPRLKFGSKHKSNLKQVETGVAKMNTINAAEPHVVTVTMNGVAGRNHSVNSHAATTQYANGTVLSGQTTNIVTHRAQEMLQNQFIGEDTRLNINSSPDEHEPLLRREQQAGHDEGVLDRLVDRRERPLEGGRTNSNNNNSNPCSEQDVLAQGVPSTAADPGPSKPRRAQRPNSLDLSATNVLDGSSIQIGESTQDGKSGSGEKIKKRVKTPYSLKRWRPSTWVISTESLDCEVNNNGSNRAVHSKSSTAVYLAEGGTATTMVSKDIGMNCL

[6] = molecular target: Serine/threonine-protein kinase MARK1 (Homo sapiens) (UniProt Q9P0L2); test: Selectivity interaction (KinomeScan (DiscoverX)) EUB0001619a MARK1; conditions: at 1 µM
Sequence of Serine/threonine-protein kinase MARK1 (Homo sapiens) (Q9P0L2 whole entry, looked up): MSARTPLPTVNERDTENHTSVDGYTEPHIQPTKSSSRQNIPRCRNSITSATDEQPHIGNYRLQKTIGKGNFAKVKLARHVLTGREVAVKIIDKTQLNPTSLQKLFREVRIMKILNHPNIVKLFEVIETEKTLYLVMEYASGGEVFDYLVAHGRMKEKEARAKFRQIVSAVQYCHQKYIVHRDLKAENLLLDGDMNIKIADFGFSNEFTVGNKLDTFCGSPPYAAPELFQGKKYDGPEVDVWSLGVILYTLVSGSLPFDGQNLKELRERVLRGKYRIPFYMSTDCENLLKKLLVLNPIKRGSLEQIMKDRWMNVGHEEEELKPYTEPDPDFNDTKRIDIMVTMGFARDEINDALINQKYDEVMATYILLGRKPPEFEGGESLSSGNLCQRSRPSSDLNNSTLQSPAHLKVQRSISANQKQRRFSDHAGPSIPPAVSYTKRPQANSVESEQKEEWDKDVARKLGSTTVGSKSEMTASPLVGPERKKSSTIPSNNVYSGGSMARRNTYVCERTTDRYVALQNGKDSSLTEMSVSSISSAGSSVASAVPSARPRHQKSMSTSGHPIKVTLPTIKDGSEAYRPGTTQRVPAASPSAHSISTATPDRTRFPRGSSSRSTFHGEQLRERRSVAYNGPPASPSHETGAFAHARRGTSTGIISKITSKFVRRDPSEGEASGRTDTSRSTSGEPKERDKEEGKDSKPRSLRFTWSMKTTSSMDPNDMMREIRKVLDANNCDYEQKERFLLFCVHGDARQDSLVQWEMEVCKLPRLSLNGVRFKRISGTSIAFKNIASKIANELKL

[7] = molecular target: Cyclin-dependent kinase-like 3 (Homo sapiens) (UniProt Q8IVW4); test: Selectivity interaction (KinomeScan (DiscoverX)) EUB0000618a CDKL3; conditions: at 10 µM
Sequence of Cyclin-dependent kinase-like 3 (Homo sapiens) (Q8IVW4 whole entry, looked up): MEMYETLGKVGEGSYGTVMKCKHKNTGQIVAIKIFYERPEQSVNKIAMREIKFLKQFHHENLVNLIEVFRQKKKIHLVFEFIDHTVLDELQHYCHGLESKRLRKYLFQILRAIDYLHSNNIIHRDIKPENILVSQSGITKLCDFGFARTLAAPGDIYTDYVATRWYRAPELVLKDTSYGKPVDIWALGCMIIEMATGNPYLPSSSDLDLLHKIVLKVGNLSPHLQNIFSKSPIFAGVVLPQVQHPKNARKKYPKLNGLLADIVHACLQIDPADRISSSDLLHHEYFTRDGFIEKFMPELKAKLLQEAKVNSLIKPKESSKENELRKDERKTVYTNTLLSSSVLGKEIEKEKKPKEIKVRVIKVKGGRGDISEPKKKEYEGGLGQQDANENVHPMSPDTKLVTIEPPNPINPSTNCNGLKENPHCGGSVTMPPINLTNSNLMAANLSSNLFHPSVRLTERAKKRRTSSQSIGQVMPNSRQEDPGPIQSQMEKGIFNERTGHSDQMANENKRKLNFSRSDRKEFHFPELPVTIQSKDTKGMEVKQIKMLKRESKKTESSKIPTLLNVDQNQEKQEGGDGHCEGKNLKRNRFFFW

[8] = molecular target: Calcium/calmodulin-dependent protein kinase type II subunit delta (Homo sapiens) (UniProt Q13557); test: Selectivity interaction (KinomeScan (DiscoverX)) EUB0000618a CAMK2D; conditions: at 10 µM
Sequence of Calcium/calmodulin-dependent protein kinase type II subunit delta (Homo sapiens) (Q13557 whole entry): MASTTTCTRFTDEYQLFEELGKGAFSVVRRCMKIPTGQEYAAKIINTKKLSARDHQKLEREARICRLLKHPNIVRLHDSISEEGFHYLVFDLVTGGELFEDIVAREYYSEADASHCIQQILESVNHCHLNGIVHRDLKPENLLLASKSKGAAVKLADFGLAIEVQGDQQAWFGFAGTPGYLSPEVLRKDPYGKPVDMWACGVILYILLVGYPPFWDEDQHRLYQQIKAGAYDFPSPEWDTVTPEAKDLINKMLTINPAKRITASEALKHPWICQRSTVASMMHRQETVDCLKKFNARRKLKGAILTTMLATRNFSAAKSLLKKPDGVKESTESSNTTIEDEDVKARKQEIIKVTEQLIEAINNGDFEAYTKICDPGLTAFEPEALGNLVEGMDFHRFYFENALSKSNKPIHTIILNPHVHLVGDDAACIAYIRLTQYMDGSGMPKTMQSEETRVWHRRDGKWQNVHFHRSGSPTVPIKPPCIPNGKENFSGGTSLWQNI

[9] = molecular target: T3, Serine/threonine-protein kinase TNNI3K (Homo sapiens) (UniProt Q59H18); test: Selectivity interaction (KinomeScan (DiscoverX)) EUB0000666a TNNI3K; conditions: at 10 µM
T3 sequence (whole entry): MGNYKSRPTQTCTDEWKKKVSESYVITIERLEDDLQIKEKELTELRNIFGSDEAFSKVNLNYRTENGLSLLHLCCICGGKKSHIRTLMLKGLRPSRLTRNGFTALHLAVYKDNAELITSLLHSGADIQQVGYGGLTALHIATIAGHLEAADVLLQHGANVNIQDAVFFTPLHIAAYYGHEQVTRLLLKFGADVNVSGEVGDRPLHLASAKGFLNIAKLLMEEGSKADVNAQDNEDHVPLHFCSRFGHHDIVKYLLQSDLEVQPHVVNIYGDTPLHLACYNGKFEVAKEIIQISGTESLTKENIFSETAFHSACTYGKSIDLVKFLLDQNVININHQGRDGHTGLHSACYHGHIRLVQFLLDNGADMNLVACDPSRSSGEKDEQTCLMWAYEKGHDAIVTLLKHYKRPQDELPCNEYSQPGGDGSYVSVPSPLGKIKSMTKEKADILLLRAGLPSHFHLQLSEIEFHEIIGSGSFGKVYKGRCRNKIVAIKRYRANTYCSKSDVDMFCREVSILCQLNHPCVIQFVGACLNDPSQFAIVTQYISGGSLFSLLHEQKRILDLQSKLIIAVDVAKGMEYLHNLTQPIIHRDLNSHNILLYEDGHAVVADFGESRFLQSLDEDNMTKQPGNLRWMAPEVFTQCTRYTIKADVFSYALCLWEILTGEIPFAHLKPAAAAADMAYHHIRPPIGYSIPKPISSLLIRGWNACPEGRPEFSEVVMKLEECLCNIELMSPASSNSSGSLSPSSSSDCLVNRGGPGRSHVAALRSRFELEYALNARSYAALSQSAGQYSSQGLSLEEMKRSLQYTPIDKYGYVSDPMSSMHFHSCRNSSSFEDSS

Sequence of Chromatin remodeling regulator CECR2 (Q9BXF3 whole entry, looked up): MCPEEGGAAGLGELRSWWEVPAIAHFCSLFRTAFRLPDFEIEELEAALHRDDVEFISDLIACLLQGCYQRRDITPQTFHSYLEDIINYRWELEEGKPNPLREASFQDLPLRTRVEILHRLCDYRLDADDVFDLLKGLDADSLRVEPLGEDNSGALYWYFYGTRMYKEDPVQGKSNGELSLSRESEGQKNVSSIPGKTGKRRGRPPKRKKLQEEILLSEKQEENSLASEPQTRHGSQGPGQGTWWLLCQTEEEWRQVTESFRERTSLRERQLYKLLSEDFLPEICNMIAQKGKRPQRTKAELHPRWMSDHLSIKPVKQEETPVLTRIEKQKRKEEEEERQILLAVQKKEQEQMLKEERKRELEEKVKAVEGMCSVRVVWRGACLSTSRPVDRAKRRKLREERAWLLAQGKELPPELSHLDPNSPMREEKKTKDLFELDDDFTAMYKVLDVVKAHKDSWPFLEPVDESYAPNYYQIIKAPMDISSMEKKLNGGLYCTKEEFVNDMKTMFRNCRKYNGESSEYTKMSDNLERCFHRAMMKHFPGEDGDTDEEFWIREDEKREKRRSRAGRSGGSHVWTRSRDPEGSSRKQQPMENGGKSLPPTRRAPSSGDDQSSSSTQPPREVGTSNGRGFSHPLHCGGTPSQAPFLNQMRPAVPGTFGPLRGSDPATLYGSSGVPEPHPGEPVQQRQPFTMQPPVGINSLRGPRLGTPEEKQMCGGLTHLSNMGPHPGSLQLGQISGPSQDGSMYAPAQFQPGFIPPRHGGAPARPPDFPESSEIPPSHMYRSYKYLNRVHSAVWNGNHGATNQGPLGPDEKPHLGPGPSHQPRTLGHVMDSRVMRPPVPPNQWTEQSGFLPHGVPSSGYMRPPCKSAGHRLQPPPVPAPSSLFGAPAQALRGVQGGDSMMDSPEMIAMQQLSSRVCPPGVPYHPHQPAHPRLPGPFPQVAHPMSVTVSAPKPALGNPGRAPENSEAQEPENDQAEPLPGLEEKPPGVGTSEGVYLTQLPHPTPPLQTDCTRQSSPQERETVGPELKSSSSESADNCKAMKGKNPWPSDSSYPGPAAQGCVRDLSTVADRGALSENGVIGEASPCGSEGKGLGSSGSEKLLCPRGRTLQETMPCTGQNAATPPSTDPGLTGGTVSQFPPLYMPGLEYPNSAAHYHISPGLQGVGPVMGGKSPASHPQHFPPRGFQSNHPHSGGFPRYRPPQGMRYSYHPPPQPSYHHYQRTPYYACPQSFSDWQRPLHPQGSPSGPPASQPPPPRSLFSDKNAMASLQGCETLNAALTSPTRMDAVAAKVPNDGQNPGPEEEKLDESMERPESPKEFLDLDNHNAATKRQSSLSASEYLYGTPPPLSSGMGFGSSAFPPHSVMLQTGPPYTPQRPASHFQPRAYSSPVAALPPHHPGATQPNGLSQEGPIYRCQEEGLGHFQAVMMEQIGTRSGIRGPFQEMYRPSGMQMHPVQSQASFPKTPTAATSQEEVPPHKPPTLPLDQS

CC[C@@H]1[C@H](F)C(=O)N[C@@H]1COc1nccc2cc(C(N)=O)c(OC)cc12 [ZIMLOVISERTIB]
% of inhibition [1]: 88.3%

Cc1cc(CN)cc(C)c1-c1ncn(C)c1-c1cncn1C
dTM [2]: -0.68 K

Cc1cc(F)c(C(=O)Nc2cccc(-c3nncn3C(C)C)n2)cc1-n1cnc(C2CC2)c1
% of control [3]: 100%

Cc1ccc(-c2ccc3c(ccc4sc5c(c43)NC[C@@H](C)NC5=O)n2)cn1
% of inhibition [4]: -9%

CN(C)CCOc1ccc(-c2nc(-c3ccncc3)c(-c3ccc4c(c3)CC/C4=N\O)[nH]2)cc1
% of control [5]: 47%

N#Cc1cccc(-c2c[nH]c3ncnc(N4CCOCC4)c23)c1
% of control [6]: 91%

O[C@H]1CC[C@H](Nc2ncc3nc(Nc4c(F)cc(F)cc4F)n([C@H]4CCOC4)c3n2)CC1
% of control [7]: 86% | % of control [8]: 76%

O=C(NOC[C@H](O)CO)c1ccc(F)c(F)c1Nc1ccc(I)cc1F
% of control [9]: 51%
